Here are results for 18 molecules from US11173151B2, “Substituted triazole derivatives and uses thereof” (BAYER AKTIENGESELLSCHAFT, priority 2017, dated 2021).

For one assay, the target named is T1, human V1a receptor (Homo sapiens, UniProt P37288).
T1 construct: expressed in transfected cells; host or cells: CHO K1 (ATCC), also stably transfected with a modified aequorin
The experiment in a line: Cellular in vitro assay for determining vasopressin receptor activity, V1a receptor cell line (CHO, aequorin luminescence). The settings on record: for IC50: CHO cell line transfected with human V1a receptor, [Arg]-vasopressin at EC50 concentration, read-out: IC50 hV1a; for ratio IC50 hV2/hV1a: selectivity ratio IC50 hV2 / IC50 hV1a. The assay is classed as cell-based. The procedure, abridged:
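Cells were plated the day before in medium containing 5 μg/ml coelenterazine and kept at 37° C. Compounds at various concentrations were then added for 10 minutes. Next, [Arg]-vasopressin at EC50 was applied and light output recorded at once, yielding IC50.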

Another assay deals with T2, human V2 receptor (Homo sapiens, UniProt P30518).
T2 construct: expressed in transfected cells; host or cells: CHO K1 (ATCC) expressing firefly luciferase under a CRE-responsive promoter
T2 sequence (P30518 whole entry): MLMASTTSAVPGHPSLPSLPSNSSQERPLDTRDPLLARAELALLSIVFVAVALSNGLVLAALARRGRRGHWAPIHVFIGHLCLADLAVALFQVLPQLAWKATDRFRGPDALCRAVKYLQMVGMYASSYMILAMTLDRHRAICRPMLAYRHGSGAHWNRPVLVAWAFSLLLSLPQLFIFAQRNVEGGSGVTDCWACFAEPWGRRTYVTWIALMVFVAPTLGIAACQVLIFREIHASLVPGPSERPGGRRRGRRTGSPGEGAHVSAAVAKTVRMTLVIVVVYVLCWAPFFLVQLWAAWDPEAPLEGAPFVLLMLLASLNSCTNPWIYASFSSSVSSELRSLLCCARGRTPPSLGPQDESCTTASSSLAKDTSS
The experiment in a line: Cellular in vitro assay for determining vasopressin receptor activity, V2 receptor cell line (CHO, CRE-luciferase). The assay is classed as cell-based. As to conditions: CHO cell line transfected with human V2 receptor; [Arg8]-vasopressin at EC50 concentration, 3 hours; read-out: IC50 hV2.

Each structure is given as a SMILES string.

T1 sequence (P37288 whole entry): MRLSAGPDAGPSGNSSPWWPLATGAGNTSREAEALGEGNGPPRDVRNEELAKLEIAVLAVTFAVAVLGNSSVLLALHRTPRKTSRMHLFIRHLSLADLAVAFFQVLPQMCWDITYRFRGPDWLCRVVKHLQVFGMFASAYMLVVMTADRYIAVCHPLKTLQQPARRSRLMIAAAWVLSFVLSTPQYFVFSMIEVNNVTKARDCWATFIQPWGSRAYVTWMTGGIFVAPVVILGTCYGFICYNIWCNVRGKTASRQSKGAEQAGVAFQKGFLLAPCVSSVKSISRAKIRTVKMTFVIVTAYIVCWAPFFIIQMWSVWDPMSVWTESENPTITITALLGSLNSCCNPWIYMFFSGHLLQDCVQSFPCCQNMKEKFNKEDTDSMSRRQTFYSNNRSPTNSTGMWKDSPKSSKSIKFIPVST

With `O=C(c1ccccc1-n1cnc(Cn2nc(-c3ccc(Cl)cc3)n(C[C@H](O)C(F)(F)F)c2=O)n1)N1CCCC1` [Example 348, 5-(4-Chlorophenyl)-2-({1-[2-(pyrrolidin-1-ylcarbonyl)phenyl]-1H-1,2,4-triazol-3-yl}methyl)-4-[(2S)-3,3,3-trifluoro-2-hydroxypropyl]-2,4-dihydro-3H-1,2,4-triazol-3-one], the IC50 is 3.85 nM at human V1a receptor and 970 nM at human V2 receptor. In addition, the “ratio IC50 hV2/hV1a” value on human V1a receptor was 251.9.
As for `CCN(C(=O)c1ccccc1-n1cnc(Cn2nc(-c3ccc(Cl)cc3)n(C[C@H](O)C(F)(F)F)c2=O)n1)C(C)C` [Example 349, 2-[3-({3-(4-Chlorophenyl)-5-oxo-4-[(2S)-3,3,3-trifluoro-2-hydroxypropyl]-4,5-dihydro-1H-1,2,4-triazol-1-yl}methyl)-1H-1,2,4-triazol-1-yl]-N-ethyl-N-(propan-2-yl)benzamide], the IC50 at human V1a receptor is 4.7 nM; on human V2 receptor, 740 nM. In addition, the “ratio IC50 hV2/hV1a” value at human V1a receptor worked out at 157.4.
As to `O=C(c1ccccc1-n1cnc(Cn2nc(-c3ccc(Cl)cc3)n(C[C@H](O)C(F)(F)F)c2=O)n1)N1CCCCCC1` [Example 350, 2-({1-[2-(Azepan-1-ylcarbonyl)phenyl]-1H-1,2,4-triazol-3-yl}methyl)-5-(4-chlorophenyl)-4-[(2S)-3,3,3-trifluoro-2-hydroxypropyl]-2,4-dihydro-3H-1,2,4-triazol-3-one], at human V1a receptor, the IC50 worked out at 1.8 nM and the “ratio IC50 hV2/hV1a” value was 147.2. The IC50 on human V2 receptor was 265 nM.
The matching figures for `CC1CCCCN1C(=O)c1ccccc1-n1cnc(Cn2nc(-c3ccc(Cl)cc3)n(C[C@H](O)C(F)(F)F)c2=O)n1` (stereo partly drawn) [Example 352, 5-(4-Chlorophenyl)-2-{[1-(2-{[2-methylpiperidin-1-yl]carbonyl}phenyl)-1H-1,2,4-triazol-3-yl]methyl}-4-[(2S)-3,3,3-trifluoro-2-hydroxypropyl]-2,4-dihydro-3H-1,2,4-triazol-3-one]: 0.84 nM, 383.2 and 320 nM.
The matching figures for `O=C(c1ccccc1-n1cnc(Cn2nc(-c3ccc(Cl)cc3)n(C[C@H](O)C(F)(F)F)c2=O)n1)N1CC=CCC1` [Example 353, 5-(4-Chlorophenyl)-2-({1-[2-(3,6-dihydropyridin-1(2H)-ylcarbonyl)phenyl]-1H-1,2,4-triazol-3-yl}methyl)-4-[(2S)-3,3,3-trifluoro-2-hydroxypropyl]-2,4-dihydro-3H-1,2,4-triazol-3-one]: 0.94 nM, 299.5 and 280 nM.
The matching figures for `O=C(NC1CCCCC1)c1ccccc1-n1cnc(Cn2nc(-c3ccc(Cl)cc3)n(C[C@H](O)C(F)(F)F)c2=O)n1` [Example 354, 2-[3-({3-(4-Chlorophenyl)-5-oxo-4-[(2S)-3,3,3-trifluoro-2-hydroxypropyl]-4,5-dihydro-1H-1,2,4-triazol-1-yl}methyl)-1H-1,2,4-triazol-1-yl]-N-cyclohexylbenzamide]: 2.25 nM, 66.7 and 150 nM.
Consider `CC(C)CN(C)C(=O)c1ccccc1-n1cnc(Cn2nc(-c3ccc(Cl)cc3)n(C[C@H](O)C(F)(F)F)c2=O)n1` [Example 356, 2-[3-({3-(4-Chlorophenyl)-5-oxo-4-[(2S)-3,3,3-trifluoro-2-hydroxypropyl]-4,5-dihydro-1H-1,2,4-triazol-1-yl}methyl)-1H-1,2,4-triazol-1-yl]-N-methyl-N-(2-methylpropyl)benzamide], for which the IC50 at human V1a receptor came to 2.45 nM; at human V2 receptor, 1890 nM. The “ratio IC50 hV2/hV1a” value on human V1a receptor amounted to 771.4.
As for `CN1CCN(C(=O)c2ccccc2-n2cnc(Cn3nc(-c4ccc(Cl)cc4)n(C[C@H](O)C(F)(F)F)c3=O)n2)CC1` [Example 357, 5-(4-Chlorophenyl)-2-[(1-{2-[(4-methylpiperazin-1-yl)carbonyl]phenyl}-1H-1,2,4-triazol-3-yl)methyl]-4-[(2S)-3,3,3-trifluoro-2-hydroxypropyl]-2,4-dihydro-3H-1,2,4-triazol-3-one], at human V1a receptor, the IC50 was found to be 33 nM and the “ratio IC50 hV2/hV1a” value stood at 74.2. The IC50 at human V2 receptor came out at 2450 nM.
The matching figures for `CCN1CCN(C(=O)c2ccccc2-n2cnc(Cn3nc(-c4ccc(Cl)cc4)n(C[C@H](O)C(F)(F)F)c3=O)n2)CC1` [Example 358, 5-(4-Chlorophenyl)-2-[(1-{2-[(4-ethylpiperazin-1-yl)carbonyl]phenyl}-1H-1,2,4-triazol-3-yl)methyl]-4-[(2S)-3,3,3-trifluoro-2-hydroxypropyl]-2,4-dihydro-3H-1,2,4-triazol-3-one]: 18 nM, 152.8 and 2750 nM.
Take `O=C(c1ccccc1-n1cnc(Cn2nc(-c3ccc(Cl)cc3)n(C[C@H](O)C(F)(F)F)c2=O)n1)N1CCCCCCC1` [Example 359, 2-({1-[2-(Azocan-1-ylcarbonyl)phenyl]-1H-1,2,4-triazol-3-yl}methyl)-5-(4-chlorophenyl)-4-[(2S)-3,3,3-trifluoro-2-hydroxypropyl]-2,4-dihydro-3H-1,2,4-triazol-3-one]: at human V1a receptor, the IC50 turned out to be 6.5 nM and the “ratio IC50 hV2/hV1a” value stood at 138.5. Also, the IC50 at human V2 receptor was 900 nM.
The matching figures for `O=C(Nc1ccccc1)c1ccccc1-n1cnc(Cn2nc(-c3ccc(Cl)cc3)n(C[C@H](O)C(F)(F)F)c2=O)n1` [Example 360, 2-[3-({3-(4-Chlorophenyl)-5-oxo-4-[(2S)-3,3,3-trifluoro-2-hydroxypropyl]-4,5-dihydro-1H-1,2,4-triazol-1-yl}methyl)-1H-1,2,4-triazol-1-yl]-N-phenylbenzamide]: 0.74 nM, 20.1 and 14.9 nM.
The matching figures for `Cc1cccc(NC(=O)c2ccccc2-n2cnc(Cn3nc(-c4ccc(Cl)cc4)n(C[C@H](O)C(F)(F)F)c3=O)n2)c1` [Example 361, 2-[3-({3-(4-Chlorophenyl)-5-oxo-4-[(2S)-3,3,3-trifluoro-2-hydroxypropyl]-4,5-dihydro-1H-1,2,4-triazol-1-yl}methyl)-1H-1,2,4-triazol-1-yl]-N-(3-methylphenyl)benzamide]: 2.55 nM, 38.2 and 97.5 nM.
As for `CN(CCC#N)C(=O)c1ccccc1-n1cnc(Cn2nc(-c3ccc(Cl)cc3)n(C[C@H](O)C(F)(F)F)c2=O)n1` [Example 362, 2-[3-({3-(4-Chlorophenyl)-5-oxo-4-[(2S)-3,3,3-trifluoro-2-hydroxypropyl]-4,5-dihydro-1H-1,2,4-triazol-1-yl}methyl)-1H-1,2,4-triazol-1-yl]-N-(2-cyanoethyl)-N-methylbenzamide], at human V1a receptor, the IC50 came out at 4.85 nM and the “ratio IC50 hV2/hV1a” value stood at 515.5. Moreover, the IC50 at human V2 receptor came out at 2500 nM.
Turning to `O=C(NCc1ccccc1F)c1ccccc1-n1cnc(Cn2nc(-c3ccc(Cl)cc3)n(C[C@H](O)C(F)(F)F)c2=O)n1` [Example 363, 2-[3-({3-(4-Chlorophenyl)-5-oxo-4-[(2S)-3,3,3-trifluoro-2-hydroxypropyl]-4,5-dihydro-1H-1,2,4-triazol-1-yl}methyl)-1H-1,2,4-triazol-1-yl]-N-(2-fluorobenzyl)benzamide], on human V1a receptor, the IC50 is 5.5 nM and the “ratio IC50 hV2/hV1a” value was 62.7. Moreover, the IC50 on human V2 receptor is 345 nM.
For the molecule `O=C(NCC(F)(F)F)c1cccc(Cl)c1-n1cnc(Cn2nc(-c3ccc(Cl)cc3)n(C[C@H](O)C(F)(F)F)c2=O)n1` [Example 365, 3-Chloro-2-[3-({3-(4-chlorophenyl)-5-oxo-4-[(2S)-3,3,3-trifluoro-2-hydroxypropyl]-4,5-dihydro-1H-1,2,4-triazol-1-yl}methyl)-1H-1,2,4-triazol-1-yl]-N-(2,2,2-trifluoroethyl)benzamide], on human V1a receptor, the IC50 was found to be 30 nM and the “ratio IC50 hV2/hV1a” value stood at 30.7. Also, the IC50 on human V2 receptor turned out to be 920 nM.
The matching figures for `O=C(NCC(F)(F)F)c1cccc(Cl)c1-n1cnc(Cn2nc(-c3ccc(Cl)cc3)n(C[C@@H](O)C(F)(F)F)c2=O)n1` [Example 366, 3-Chloro-2-[3-({3-(4-chlorophenyl)-5-oxo-4-[(2R)-3,3,3-trifluoro-2-hydroxypropyl]-4,5-dihydro-1H-1,2,4-triazol-1-yl}methyl)-1H-1,2,4-triazol-1-yl]-N-(2,2,2-trifluoroethyl)benzamide]: 195 nM, 19.0 and 3700 nM.
The matching figures for `O=C(NC1CC1)c1cccc(Cl)c1-n1cnc(Cn2nc(-c3ccc(Cl)cc3)n(C[C@H](O)C(F)(F)F)c2=O)n1` [Example 369, 3-Chloro-2-[3-({3-(4-chlorophenyl)-5-oxo-4-[(2S)-3,3,3-trifluoro-2-hydroxypropyl]-4,5-dihydro-1H-1,2,4-triazol-1-yl}methyl)-1H-1,2,4-triazol-1-yl]-N-cyclopropylbenzamide]: 2.8 nM, 167.9 and 470 nM.
Consider `O=C(NCC1CC1)c1cccc(Cl)c1-n1cnc(Cn2nc(-c3ccc(Cl)cc3)n(C[C@H](O)C(F)(F)F)c2=O)n1` [Example 370, 3-Chloro-2-[3-({3-(4-chlorophenyl)-5-oxo-4-[(2S)-3,3,3-trifluoro-2-hydroxypropyl]-4,5-dihydro-1H-1,2,4-triazol-1-yl}methyl)-1H-1,2,4-triazol-1-yl]-N-(cyclopropylmethyl)benzamide], for which, on human V1a receptor, the IC50 came out at 33 nM and the “ratio IC50 hV2/hV1a” value turned out to be 12.7. In addition, on human V2 receptor, the IC50 was found to be 420 nM.
